Test results from US6762207B1, “(E)-styryl sulfone anticancer agents” (priority 1999, dated 2004).

Experiments:
Format in all cases: cell-based
Parameters in all cases: dose or concentration left out as unconfirmed
Details in all cases: 96 hours
[1] = tested on: breast tumor cell line MCF-7; test: Trypan blue exclusion viability assay, MCF-7
Description: (§1) MCF-7 is estrogen-responsive, while BT-20 is an estrogen-unresponsive cell line. NIH/3T3 and HFL are normal murine and human fibroblasts, respectively. MCF-7, BT-20, DLD-1 and H157 were grown in Dulbecco's modified Eagle's medium (DMEM) containing 10% fetal bovine serum supplemented with penicillin and streptomycin. DU145 was cultured in RPMI with 10% fetal bovine serum containing penicillin and streptomycin. […] All cell cultures were maintained at 37° C. in a humidified atmosphere of 5% CO2. Cells were treated with test compound at 2.5 mM concentration and cell viability was determined after 96 hours by the Trypan blue exclusion method.

[2] = tested on: breast tumor cell line BT-20; test: Trypan blue exclusion viability assay, BT20
Description: as §1

[3] = tested on: non-small cell lung carcinoma cell line H157; test: Trypan blue exclusion viability assay, H157
Description: as §1

[4] = tested on: colorectal carcinoma cell line DLD-1; test: Trypan blue exclusion viability assay, DLD-1
Description: as §1

[5] = tested on: prostate tumor cell line DU-145; test: Trypan blue exclusion viability assay, DU145
Description: as §1

| Compound | Cell death, MCF-7 [1] | Cell death, BT20 [2] | Cell death, H157 [3] | Cell death, DLD-1 [4] | Cell death, DU145 [5] |
| --- | --- | --- | --- | --- | --- |
| O=S(=O)(/C=C/c1ccc(F)cc1)Cc1ccc(C(F)(F)F)cc1 [Example 1, (E)-4-Fluorostyryl-4-trifluoromethylbenzylsulfone] | +++ (40-50% = +++) | +++ (40-50% = +++) | ++ (10-15% = ++) | +++ (40-50% = +++) | +++ (40-50% = +++) |
| O=S(=O)(/C=C/c1ccc(F)cc1)Cc1ccc(Cl)cc1Cl [Example 4, (E)-4-Fluorostyryl-2,4-dichlorobenzylsulfone] | ++ (10-15% = ++) | ++ (10-15% = ++) | + (5-10%: = +) | – | ++ (10-15% = ++) |
| O=S(=O)(/C=C/c1ccc(F)cc1)Cc1ccc(Cl)c(Cl)c1 [Example 6, (E)-4-Fluorostyryl-3,4-dichlorobenzylsulfone] | ++++ (50-60% = ++++) | ++++ (50-60% = ++++) | – | – | ++++ (50-60% = ++++) |
| O=S(=O)(/C=C/c1ccc(Cl)cc1)Cc1ccc(Cl)cc1Cl [Example 5, (E)-4-Chlorostyryl-2,4-dichlorobenzylsulfone] | +++ (40-50% = +++) | – | ++ (10-15% = ++) | ++ (10-15% = ++) | + (5-10%: = +) |
| O=S(=O)(/C=C/c1ccc(F)cc1Cl)Cc1ccc(Cl)cc1 [Example 15, (E)-2-Chloro-4-fluorostyryl-4-chlorobenzylsulfone] | +++++ (Above 80% = +++++) | – | +++++ (Above 80% = +++++) | +++++ (Above 80% = +++++) | +++++ (Above 80% = +++++) |
| O=[N+]([O-])c1ccc(CS(=O)(=O)/C=C/c2ccc(F)cc2)cc1 [Example 9, (E)-4-Fluorostyryl-4-nitrobenzylsulfone] | ++ (10-15% = ++) | ++ (10-15% = ++) | ++ (10-15% = ++) | − (0% = −) | ++ (10-15% = ++) |
| O=S(=O)(/C=C/c1ccc(F)c(F)c1)Cc1ccc(Cl)cc1 [Example 13, (E)-3,4-Difluorostyryl-4-chlorobenzylsulfone] | − (0% = −) | – | − (0% = −) | − (0% = −) | − (0% = −) |
| O=S(=O)(/C=C/c1ccc(Cl)cc1)Cc1ccc(C(F)(F)F)cc1 [Example 2, (E)-4-Chlorostyryl-4-trifluoromethylbenzylsulfone] | ++ (10-15% = ++) | ++ (10-15% = ++) | – | ++ (10-15% = ++) | ++ (10-15% = ++) |
